# Test results published in US11034717B2, “Farnesoid X receptor modulators” (Intercept Pharmaceuticals, Inc., priority 2015, dated 2021).
# Where two headings read alike, the source gives them in different places.
# What was measured:
# dTGR5 = experiment: Cross species TGR5 activity, CHO cells, dog; format: cell-based
# [1] = 1-octanol-water partition coefficient of ionized species; format: physicochemical
# Protocol: (§1) Physiochemical properties of a compound of the invention such as water solubility, critical micellar concentration, surface tension, and LogPA were determined using methods known in the art.
# rTGR5 = rTGR5 (Rattus norvegicus (Rat), UniProt Q80T02); experiment: Cross species TGR5 activity, CHO cells, rat; format: cell-based
# hERG potassium channel = hERG potassium channel (Homo sapiens (Human), UniProt Q12809); experiment: biochemical
# Source text: The assay is based on the assumption that the hERG potassium channel activity contributes to the resting membrane potential in permanently transfected cells, and thus a block of hERG channels should result in a depolarization of the cell membrane. The assay is designed to identify potential hERG channel blockers by producing data that accurately correlates with patch-clamp electrophysiology studies.
# Membrane preparations from Chinese hamster ovary cells stably transfected with hERG potassium channel are used to evaluate the potential inhibitory effect of a compound of the invention on this channel using the Predictor™ fluorescence polarization assay. Reduction of membrane polarization as a result of inhibition of the hERG potassium channel is directly correlated with a reduction of the fluorescence polarization (FP).
# An assay window more than 100 mP (millipolarization) is considered good. The non-linear regression curves are obtained by GraphPad Prism (GraphPad Software Inc.) analysis, to calculate the IC50 values.
# HepG2 cells [2] = experiment: In-vitro cytotoxicity, ATP content; format: cell-based; details: Table 5B, HepG2
# Source text: To evaluate in-vitro cytotoxicity of a compound of the invention, two different assay methods are employed. The assays evaluate cell viability by measuring ATP levels and cytotoxicity by measuring LDH release. […] It has been called the “molecular unit of currency” when it comes to intracellular energy transfer.
# (§2) An additional method to determine the viability of cells is to detect the integrity of the membrane that defines the cellular compartmentalization. Measuring the leakage of components out of the cytoplasm, in damaged cell membranes, indicates loss of membrane integrity, and LDH release is the method used to determine common toxicity in cells. HepG2 cells are treated with a compound of the invention, and serial dilutions are performed. LCA dilutions are added to the plated cells as assay controls together with no-cell and untreated cells. The assay is performed in triplicate for each test compound concentration.
# hTGR5 [3] = molecular target: T1, hTGR5 (Homo sapiens (Human), UniProt Q8TDU6); experiment: HTR-FRET intracellular cAMP assay in NCI-H716 cells; format: cell-based; details: Table 2
# [4] = test system: nuclear receptors LXRP, PXR, CAR, PPARα, PPARγ, RAR, RARα, VDR, TR, PR, RXR, GR, and ER; experiment: Nuclear receptor selectivity profile (AlphaScreen); format: biochemical; details: for Activation of nuclear receptor panel, agonist mode: dose response to 200 μM; for Activity on nuclear receptor panel, antagonist mode: fixed concentration at 10 μM
# Protocol: Using the AlphaScreen assay, the selectivity of a compound of the invention against the following nuclear receptors involved in the metabolic pathways can be evaluated: LXRP, PXR, CAR, PPARα, PPARα, PPARγ, RAR, RARα, VDR, TR, PR, RXR, GR, and ER.
# Compounds L1, 3, 5, 6 and 7 were tested against the panel of available nuclear receptor in both agonist and antagonist mode.
# [5] = Critical micellar concentration; format: physicochemical; details: determined in […] NaCl water solution
# Protocol: as §1
# HepG2 cells [6] = experiment: In-vitro cytotoxicity, membrane integrity (LDH release); format: cell-based
# Source text: (§3) To evaluate in-vitro cytotoxicity of a compound of the invention, two different assay methods are employed. The assays evaluate cell viability by measuring ATP levels and cytotoxicity by measuring LDH release. Adenosine Triphosphate (ATP) nucleotide represents the source of energy at the basic molecular level, as it is a multifunctional molecule that is used in every cell as a coenzyme and is an integral part of the mitochondrial DNA (Kangas, et al., Medical Biology, 1984, 62, 338-343; Crouch, et al., J Immunol. Methods, 1993, 160, 81-88; and Petty, et al., J Biolumin. Chemilumin. 1995, 10, 29-34). It has been called the “molecular unit of currency” when it comes to intracellular energy transfer.
# as §2
# [7] = test system: FXR target genes: BSEP, SHP, OSTβ and CYP7A1; experiment: FXR target gene panel, quantitative RT-PCR in HepG2 cells; format: cell-based; details: stimulation for 18 hours
# Protocol: To evaluate the capacity of a compound of the invention to modulate FXR target genes, quantitative RT-PCR assays are performed. HepG2 cells are selected as a relevant cell line to determine whether a compound of the invention can regulate the endogenous FXR genetic network. The ability of a compound of the invention to induce FXR target genes is assessed by isolating total RNA from cells treated overnight with 1 μM of compounds A, B, and a compound of the invention.
# FXR regulates the expression of several target genes involved in BA homeostasis. Briefly, FXR plays a central role in several metabolic pathways, including i.e., lipid metabolism, bile-acids metabolism, and carbohydrate metabolism. Regarding gene expression profiling, the genes encoding proteins involved in lipid metabolism include, e.g., APOCII, APOE, APOAI, SREBP-1C, VLDL-R, PLTP, and LPL; the genes encoding proteins involved in bile-acids metabolism include, e.g., OSTα/β, BSEP, MRP2, SHP, CYP7A1, FGF19, SULT2A1, and UGT2B4; and the genes encoding proteins involved in carbohydrate metabolism include, e.g., PGCla, PEPCK, and GLUT2. FXR target genes: BSEP, SHP, OSTβ and CYP7A1 were evaluated following stimulation of Compounds 3, 5, 6, and 7 on HepG2 cells for 18 hours. Compound L1 was used as a control.
# CYP3A4 = CYP3A4 (Homo sapiens (Human), UniProt P08684); experiment: CYP450 inhibition, fluorescent substrate, recombinant baculosomes; format: in vitro ADME
# Protocol: (§4) To evaluate the potential of a compound of the invention for drug-drug interactions, the six main CYP450 isoforms (CYP1A2, CYP2C9, CYP2C19, CYP2D6, CYP2E1, CYP3A4) are investigated (Obach, et al., J Pharmacol. Exp. Ther, 2006, 316, 336-348).
# (§5) To determine interaction between a compound of the invention and cytochrome P450 enzymes, the compound of the invention is analyzed by its capacity to inhibit (or not) the production of a fluorescent signal, using recombinant CYP450 proteins (baculosomes; Invitrogen), substrates and inhibitors (Bidstrup, et al., Br J Clin. Pharmacol, 2003, 56, 305-14). As a positive control, a selective inhibitor for each CYP450 isoform is tested in the same plate.
# CYP2C9 = CYP2C9 (Homo sapiens (Human), UniProt P11712); experiment: as above; format: in vitro ADME; details: read-out: CYP2C9 IC50
# Protocol: as §4, §5
# CYP2C19 = CYP2C19 (Homo sapiens (Human), UniProt P33261); experiment: as above; format: in vitro ADME; details: read-out: CYP2C19 IC50
# Protocol: as §4, §5
# CYP1A2 = CYP1A2 (Homo sapiens (Human), UniProt P05177); experiment: as above; format: in vitro ADME
# Protocol: as §4, §5
# CYP2D6 = CYP2D6 (Homo sapiens (Human), UniProt P10635); experiment: as above; format: in vitro ADME; details: read-out: CYP2D6 IC50
# Protocol: as §4, §5
# CYP2E1 = CYP2E1 (Homo sapiens (Human), UniProt P05181); experiment: as above; format: in vitro ADME; details: read-out: CYP2E1 IC50
# Protocol: as §4, §5
# hTGR5 [8] = molecular target: T1, hTGR5; experiment: Cross species TGR5 activity, CHO cells, human; format: cell-based
# mTGR5 = mTGR5 (Mus musculus (Mouse), UniProt Q80SS6); experiment: Cross species TGR5 activity, CHO cells, mouse; format: cell-based
# [9] = In-vitro cytotoxicity, membrane integrity (LDH release); format: cell-based; details: human; HepG2; read-out: Membrane Integrity (LDH measure) LC50
# Source text: as §3, §2
# [10] = Blue substrate, read-out: CYP3A4 (Blue substrate) IC50
# [11] = Green substrate, read-out: CYP3A4 (Green substrate) IC50
# Chain of mTGR5 (Q80SS6 whole entry): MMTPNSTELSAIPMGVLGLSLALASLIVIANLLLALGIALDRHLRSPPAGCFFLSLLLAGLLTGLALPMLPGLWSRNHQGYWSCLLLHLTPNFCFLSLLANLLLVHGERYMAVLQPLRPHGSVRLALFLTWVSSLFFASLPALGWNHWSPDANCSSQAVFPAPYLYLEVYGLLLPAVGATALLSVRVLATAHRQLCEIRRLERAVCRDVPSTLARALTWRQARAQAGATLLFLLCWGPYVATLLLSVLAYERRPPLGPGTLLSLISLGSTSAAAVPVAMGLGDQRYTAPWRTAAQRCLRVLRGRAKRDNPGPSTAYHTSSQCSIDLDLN
# Chain of CYP2C19 (P33261 whole entry): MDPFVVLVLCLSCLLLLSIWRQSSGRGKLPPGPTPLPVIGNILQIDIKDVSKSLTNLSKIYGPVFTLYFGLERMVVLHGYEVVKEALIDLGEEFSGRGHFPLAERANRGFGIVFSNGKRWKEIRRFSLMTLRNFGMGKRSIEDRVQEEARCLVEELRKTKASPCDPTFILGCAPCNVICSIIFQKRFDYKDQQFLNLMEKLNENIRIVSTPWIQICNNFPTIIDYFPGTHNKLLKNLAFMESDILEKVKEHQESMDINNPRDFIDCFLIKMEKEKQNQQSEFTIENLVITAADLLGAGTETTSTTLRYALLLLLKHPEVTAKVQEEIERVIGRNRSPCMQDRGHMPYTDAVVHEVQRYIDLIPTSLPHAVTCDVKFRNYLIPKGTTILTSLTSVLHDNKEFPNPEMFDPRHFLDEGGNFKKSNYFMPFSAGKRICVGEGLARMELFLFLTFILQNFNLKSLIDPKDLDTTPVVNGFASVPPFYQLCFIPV
# Chain of rTGR5 (Q80T02 whole entry): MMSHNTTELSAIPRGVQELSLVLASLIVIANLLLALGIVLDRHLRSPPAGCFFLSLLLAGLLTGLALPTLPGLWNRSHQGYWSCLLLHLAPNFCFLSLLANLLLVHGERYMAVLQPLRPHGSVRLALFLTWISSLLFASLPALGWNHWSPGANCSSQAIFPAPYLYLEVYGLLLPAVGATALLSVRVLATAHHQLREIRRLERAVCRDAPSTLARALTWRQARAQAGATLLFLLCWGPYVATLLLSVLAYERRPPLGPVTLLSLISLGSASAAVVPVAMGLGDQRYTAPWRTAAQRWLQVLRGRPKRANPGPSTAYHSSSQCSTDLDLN
# Chain of CYP2E1 (P05181 whole entry): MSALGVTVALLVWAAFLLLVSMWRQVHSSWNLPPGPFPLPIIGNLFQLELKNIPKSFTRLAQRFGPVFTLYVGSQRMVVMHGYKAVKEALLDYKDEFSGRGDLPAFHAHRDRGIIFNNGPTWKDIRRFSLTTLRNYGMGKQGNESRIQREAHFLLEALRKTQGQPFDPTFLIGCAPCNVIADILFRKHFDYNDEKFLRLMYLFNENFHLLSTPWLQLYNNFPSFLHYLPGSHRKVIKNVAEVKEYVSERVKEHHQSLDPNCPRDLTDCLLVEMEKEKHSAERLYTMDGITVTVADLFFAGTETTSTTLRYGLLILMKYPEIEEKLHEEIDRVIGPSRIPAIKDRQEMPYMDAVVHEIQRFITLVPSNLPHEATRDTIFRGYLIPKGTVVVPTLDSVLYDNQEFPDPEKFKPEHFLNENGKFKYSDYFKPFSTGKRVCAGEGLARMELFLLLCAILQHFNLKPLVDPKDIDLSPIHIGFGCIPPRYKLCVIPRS
# Chain of hERG potassium channel (Q12809 whole entry): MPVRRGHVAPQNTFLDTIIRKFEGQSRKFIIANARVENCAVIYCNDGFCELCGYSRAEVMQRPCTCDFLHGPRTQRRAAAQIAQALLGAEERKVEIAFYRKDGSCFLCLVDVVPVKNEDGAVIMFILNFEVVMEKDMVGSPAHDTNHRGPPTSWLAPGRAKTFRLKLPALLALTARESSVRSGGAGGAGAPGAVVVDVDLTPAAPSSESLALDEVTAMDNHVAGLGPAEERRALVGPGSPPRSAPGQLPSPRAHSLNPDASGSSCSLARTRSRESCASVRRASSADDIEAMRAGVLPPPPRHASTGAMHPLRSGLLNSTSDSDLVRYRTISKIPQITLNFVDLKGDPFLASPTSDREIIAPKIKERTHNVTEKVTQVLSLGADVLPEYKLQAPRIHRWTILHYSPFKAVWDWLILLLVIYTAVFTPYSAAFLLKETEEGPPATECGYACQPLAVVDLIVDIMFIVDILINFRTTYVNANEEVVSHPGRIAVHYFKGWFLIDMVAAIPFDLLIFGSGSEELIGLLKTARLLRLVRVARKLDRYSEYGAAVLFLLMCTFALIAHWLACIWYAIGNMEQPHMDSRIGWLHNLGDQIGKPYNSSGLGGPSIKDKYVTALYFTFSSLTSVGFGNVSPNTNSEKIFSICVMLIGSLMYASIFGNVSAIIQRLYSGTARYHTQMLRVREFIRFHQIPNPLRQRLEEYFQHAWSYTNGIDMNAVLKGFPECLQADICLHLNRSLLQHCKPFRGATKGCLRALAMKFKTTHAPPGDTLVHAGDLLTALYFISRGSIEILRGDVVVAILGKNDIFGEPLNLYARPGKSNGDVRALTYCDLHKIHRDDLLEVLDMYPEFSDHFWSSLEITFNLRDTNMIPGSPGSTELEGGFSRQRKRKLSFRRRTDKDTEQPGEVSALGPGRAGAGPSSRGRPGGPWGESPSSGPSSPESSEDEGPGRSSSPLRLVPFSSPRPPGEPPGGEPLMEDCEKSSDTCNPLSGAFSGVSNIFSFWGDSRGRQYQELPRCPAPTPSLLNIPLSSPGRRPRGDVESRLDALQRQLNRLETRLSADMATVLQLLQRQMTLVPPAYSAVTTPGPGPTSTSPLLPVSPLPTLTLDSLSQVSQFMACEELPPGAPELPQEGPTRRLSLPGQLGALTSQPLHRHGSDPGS
# T1 sequence (Q8TDU6 whole entry): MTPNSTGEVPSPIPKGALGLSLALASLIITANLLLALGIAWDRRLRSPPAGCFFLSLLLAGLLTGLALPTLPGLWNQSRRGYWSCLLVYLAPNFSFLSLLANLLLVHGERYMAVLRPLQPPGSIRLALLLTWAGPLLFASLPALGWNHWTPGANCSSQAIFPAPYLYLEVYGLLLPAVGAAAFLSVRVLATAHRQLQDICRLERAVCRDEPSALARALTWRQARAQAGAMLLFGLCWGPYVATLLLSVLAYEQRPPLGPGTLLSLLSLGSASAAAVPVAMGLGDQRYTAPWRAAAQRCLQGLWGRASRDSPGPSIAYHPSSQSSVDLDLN
# Chain of CYP3A4 (P08684 whole entry, canonical isoform): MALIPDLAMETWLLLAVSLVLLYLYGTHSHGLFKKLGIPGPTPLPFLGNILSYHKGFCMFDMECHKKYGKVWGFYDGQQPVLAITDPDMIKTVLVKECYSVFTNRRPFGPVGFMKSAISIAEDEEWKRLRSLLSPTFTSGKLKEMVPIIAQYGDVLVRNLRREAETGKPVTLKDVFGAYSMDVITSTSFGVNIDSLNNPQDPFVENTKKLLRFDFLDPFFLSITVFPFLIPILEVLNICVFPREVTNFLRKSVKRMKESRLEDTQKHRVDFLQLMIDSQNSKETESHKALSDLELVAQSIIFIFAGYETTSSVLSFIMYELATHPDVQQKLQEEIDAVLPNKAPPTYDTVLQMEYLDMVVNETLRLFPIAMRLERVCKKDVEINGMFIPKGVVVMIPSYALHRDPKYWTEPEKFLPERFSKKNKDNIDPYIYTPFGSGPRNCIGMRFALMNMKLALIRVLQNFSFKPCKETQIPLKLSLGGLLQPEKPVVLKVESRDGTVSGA
# Chain of CYP1A2 (P05177 whole entry): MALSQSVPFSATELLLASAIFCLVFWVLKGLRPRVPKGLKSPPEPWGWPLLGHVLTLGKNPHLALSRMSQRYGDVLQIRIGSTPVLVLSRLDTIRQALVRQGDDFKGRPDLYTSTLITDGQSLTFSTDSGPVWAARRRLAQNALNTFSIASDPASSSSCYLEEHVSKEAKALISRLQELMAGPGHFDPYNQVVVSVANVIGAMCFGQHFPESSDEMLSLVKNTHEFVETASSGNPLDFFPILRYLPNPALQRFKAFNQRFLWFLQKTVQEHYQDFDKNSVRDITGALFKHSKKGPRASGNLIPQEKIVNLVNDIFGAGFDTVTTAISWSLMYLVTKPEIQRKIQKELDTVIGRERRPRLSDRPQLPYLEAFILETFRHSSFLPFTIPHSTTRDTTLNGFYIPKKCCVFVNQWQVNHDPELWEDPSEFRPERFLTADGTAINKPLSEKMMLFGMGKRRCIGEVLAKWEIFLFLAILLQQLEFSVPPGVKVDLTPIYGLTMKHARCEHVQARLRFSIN
# Chain of CYP2D6 (P10635 whole entry): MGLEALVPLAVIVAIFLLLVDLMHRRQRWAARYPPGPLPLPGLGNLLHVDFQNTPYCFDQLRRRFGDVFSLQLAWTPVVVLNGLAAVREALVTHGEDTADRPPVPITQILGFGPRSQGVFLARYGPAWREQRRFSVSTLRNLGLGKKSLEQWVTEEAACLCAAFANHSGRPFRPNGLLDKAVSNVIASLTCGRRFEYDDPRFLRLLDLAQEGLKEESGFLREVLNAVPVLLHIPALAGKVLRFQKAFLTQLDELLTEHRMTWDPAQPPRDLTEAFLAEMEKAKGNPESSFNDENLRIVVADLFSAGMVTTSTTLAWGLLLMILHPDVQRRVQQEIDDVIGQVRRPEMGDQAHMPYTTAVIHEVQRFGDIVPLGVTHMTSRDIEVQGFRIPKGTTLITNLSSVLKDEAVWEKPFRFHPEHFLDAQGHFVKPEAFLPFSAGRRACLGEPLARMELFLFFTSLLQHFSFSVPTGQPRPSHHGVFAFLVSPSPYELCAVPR
SMILES,EC50 (dTGR5) [µM],LogPA−: 1-octanol-water partition coefficient as ionized species [1],rTGR5 CHO EC50 (rTGR5),IC50 (hERG potassium channel) [µM],hERG potassium channel inhibition (in words) (hERG potassium channel),ATP Content EC50 (HepG2 cells [2]),HTR-FRET (cAMP) Human TGR5 EC50 (hTGR5 [3]),"Activation of nuclear receptor panel, agonist mode [4]","Activity on nuclear receptor panel, antagonist mode [4]",Membrane Integrity (LDH measure) LC50 (HepG2 cells [6]),"Modulation of FXR target genes BSEP, SHP, OSTβ and CYP7A1 [7]",IC50 (CYP3A4; [10]) [µM],IC50 (CYP3A4; [11]) [µM],IC50 (CYP2C9) [µM],IC50 (CYP2C19) [µM],IC50 (CYP1A2) [µM],IC50 (CYP2D6) [µM],IC50 (CYP2E1) [µM],hTGR5 CHO EC50 (hTGR5 [8]),mTGR5 CHO EC50 (mTGR5),also measured
"CC[C@H]1[C@@H](O)C2C3CC[C@H]([C@H](C)Cc4nc(=O)o[nH]4)[C@@]3(C)C[C@H](O)C2[C@@]2(C)CC[C@@H](O)C[C@@H]12 (stereo partly drawn) [Compound 6, 3α,7α,11β-trihydroxy-6α-ethyl-22-(1,2,4-oxadiazol-5-oxo-3-yl)-23,24-bisnor-5β-cholane]",1.5 ± 0.3,1.7,No activity,> 100,"Compounds L1, 3, 5, 6 and 7 did not inhibit hERG potassium channel.",No toxicity,No activity,Neither compound activated any of the receptors,Neither compound activated any of the receptors,No toxicity,significantly bind to FXR in hepatic cells modulating FXR target genes,> 10,> 10,> 10,> 10,> 10,> 10,> 10,No activity,No activity,CMC: Critical Micellar Concentration [5]: 28 mM
"CC[C@H]1[C@@H](O)C2C3CC[C@H]([C@H](C)CCc4nc(=O)o[nH]4)[C@@]3(C)C[C@H](O)C2[C@@]2(C)CC[C@@H](O)C[C@@H]12 (stereo partly drawn) [Compound 7, 3α,7α,11β-Trihydroxy-6α-ethyl-23-(1,2,4-oxadiazol-5-oxo-3-yl)-24-nor-5β-cholane]",7.6 ± 0.01,2.0,No activity,> 100,"Compounds L1, 3, 5, 6 and 7 did not inhibit hERG potassium channel.",No toxicity,No activity,Neither compound activated any of the receptors,Neither compound activated any of the receptors,No toxicity,significantly bind to FXR in hepatic cells modulating FXR target genes,> 10,> 10,> 10,> 10,> 10,> 10,> 10,No activity,,EC50 (mTGR5): 9.5 ± 2 µM
"C[C@H](CCC(=O)O)[C@H]1CC[C@H]2[C@@H]3CC[C@@H]4C[C@H](O)CC[C@]4(C)[C@H]3CC[C@]12C [LCA, lithocholic acid, reference compound]",,,,,,,,,,,,,,,,,,,,,EC50 (HepG2 cells [2]; Homo sapiens): 75 ± 5 µM; CC50 [9]: 100 ± 5 µM
"CC[C@H]1[C@@H](O)C2C3CC[C@H]([C@H](C)CCC(=O)O)[C@@]3(C)C[C@H](O)C2[C@@]2(C)CC[C@@H](O)C[C@@H]12 (stereo partly drawn) [Compound L1, reference compound]",,0.84,No activity,,,No toxicity,,Neither compound activated any of the receptors,Neither compound activated any of the receptors,No toxicity,,> 10,> 10,> 10,> 10,> 10,> 10,> 10,,No activity,"dTGR5 CHO EC50 (dTGR5): No activity; hERG potassium channel inhibition (in words) (hERG potassium channel; Table 7 footnote): Compounds L1, 3, 5, 6 and 7 did not inhibit hERG potassium channel.; IC50 (hERG potassium channel; read-out: hERG inhibition IC50, Table 7): > 100 µM"
